The source of these data is PubChem BioAssay (NCI).

Several values for one entry are separate records, joined by “and”; a condition that tells them apart may be missing. Equal values may be shown once.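 Cultured in 96-well plates, cells were exposed to test compound for 48 hours across five concentrations. Abbreviation: GI50, concentration required for 50% inhibition of growth. At the TGI there is no net growth.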

Common to all, as to assay: NCI-60 cell line screen, 48 h
Assay [1] concerns HCT-15 colon.
The test system of assay [2] is SR leukemia.
For assay [3], the system named is A549 NSCLC.
Assay [4] relates to SNB-75 CNS.
In assay [5] the test system is SF-268 CNS.
Assay [6] deals with BT-549 breast.
Assay [7] relates to IGROV1 ovarian.
The test system of assay [8] is HT29 colon.
The subject of assay [9] is SN12C renal.
The subject of assay [10] is MCF7 breast.

As to `COC1=C(C)C(=O)C2=C(C1=O)C(CO)N1C(C#N)C3CC4C(C1C2N1CCOC41)N3C` (stereo unspecified), the GI50 in assay [1] was 0.00146 µM and 0.0129 µM; in [2], 0.00159 µM and 0.00538 µM; in [3], 0.0375 µM; in [4], 0.0669 µM; in assay [6], 0.00373 µM and 0.0232 µM and < 0.01 µM; in assay [7] it was 0.00217 µM and 0.0216 µM. Further, the TGI in [3] is 7.84 µM and 11.1 µM and 11.8 µM; in [4], 0.141 µM and 0.226 µM and 0.338 µM; in assay [5], 0.94 µM and 0.408 µM and 1.98 µM; in assay [6], 0.00951 µM and 0.0873 µM and < 0.0111 µM; in [8], 0.423 µM and 0.0773 µM.

As for `C=CC(=O)NCCOc1cccc(Nc2cc(NCCCNC(=O)C3CCC3)c(Br)cn2)c1`, the GI50 is 1.38 µM in [1]; 0.623 µM in [9]; 0.881 µM in assay [3]; 0.781 µM in assay [10]; 0.252 µM in assay [4]; 0.482 µM in [5]. In addition, the GI50 is 0.603 µM in [6], 0.963 µM in assay [7] and 0.548 µM in assay [8]. Besides, the TGI in assay [1] was 23.3 µM; in assay [9], over 25 µM; in assay [3], 14.7 µM; in assay [10], 10.3 µM; in assay [4] it was 1.38 µM; in assay [5], 3.73 µM. For the same compound, the TGI came out at 1.93 µM in [6], 12.9 µM in assay [7] and 2.84 µM in [8].

Consider `CCCCCCCCCCCCOC1C(CNCC2OC3OC(C)(C)OC3C2NC(=O)Nc2ccc(C(F)(F)F)cc2)OC2OC(C)(C)OC21` (stereo unspecified), for which the GI50 is 7.47 µM in assay [1]; 7.04 µM in assay [9]; 8.53 µM in [3]; 3.53 µM in [10]; 6.04 µM in assay [4]; 7.93 µM in assay [5]. In addition, the GI50 in [6] was 7.44 µM; in assay [7] it was 6.77 µM; in assay [8], 3.14 µM. The TGI in assay [1] was found to be 15 µM; in assay [9], 15.3 µM; in [3], 22 µM; in [10], 7.94 µM; in assay [4], 13.4 µM; in assay [5], 16.6 µM. The TGI was found to be 14.4 µM in assay [6], 15.6 µM in assay [7] and 7.07 µM in [8].

`Cc1ccc(Nc2[nH]c(C(=O)c3ccc(Cl)cc3)c(N)c2C(=S)Nc2ccccc2)nc1`: the GI50 in [1] was 31 µM; in assay [9], 18.5 µM; in [3], 37.7 µM; in assay [10], 33.1 µM; in assay [4] it was 79.3 µM; in [5], 32.7 µM. In addition, the GI50 in assay [6] was 30.7 µM; in assay [7], 31.3 µM; in [8], 57.8 µM. Moreover, the TGI in assay [1] is over 100 µM; in assay [9] it was 37.9 µM; in assay [3], over 100 µM; in assay [10] it was over 100 µM; in [4], over 100 µM; in assay [5], over 100 µM. The TGI in assay [6], in assay [7] and in assay [8] was over 100 µM each time.

With `CN(C)CCN1C(=O)c2cccc3c(N)ccc(c23)C1=O`, the GI50 in [1] is 9.32 µM; in [9], 10 µM; in assay [2], 4.59 µM; in [3], 9.04 µM; in assay [10], 7.59 µM; in assay [4] it was over 25 µM. Further, the GI50 in [5] was 15 µM; in [6], over 25 µM; in assay [8] it was 9.06 µM. Further, the TGI in assay [1] was over 25 µM; in assay [9] it was over 25 µM; in assay [2] it was 13.3 µM; in assay [3], over 25 µM; in [10] it was over 25 µM; in assay [4] it was over 25 µM. Besides, the TGI in assay [5], in assay [6] and in assay [8] was over 25 µM in each case.

Take `COc1nc2c(cc1S(=O)(=O)c1ccccc1)CCc1c-2cnn1Cc1ccccc1`: the GI50 is 7.99 µM in [1]; over 100 µM in assay [9]; over 100 µM in assay [3]; 3.48 µM in assay [10]; 20 µM in [4]; over 100 µM in assay [5]. In addition, the GI50 in assay [6] was 8.07 µM; in [7], 31.5 µM; in assay [8] it was 3.89 µM. For the same compound, the TGI in [1] is over 100 µM; in assay [9], over 100 µM; in assay [3] it was over 100 µM; in assay [10] it was 38.9 µM; in assay [4], over 100 µM; in assay [5] it was over 100 µM. For the same compound, the TGI in assay [6], in assay [7] and in assay [8] was over 100 µM throughout.

Take `COc1ccc2[nH]c3c(C)c4cc[n+](C)cc4c(C)c3c2c1`: the TGI in assay [1] was > 100 µM and 110 µM and > 250 µM; in assay [9], 797 nM [middle of 4 runs]; in assay [2], 49.1 µM and > 209 µM; in [4], 801 nM [middle of 4 runs]; in assay [6], 5.18 µM and 4.97 µM and 1.79 µM; in [8], 60.2 µM [middle of 4 runs]. The GI50 in assay [9] was 0.0483 µM and 0.0691 µM; in assay [10], 1.51 µM and 0.885 µM; in assay [4] it was 0.158 µM and 0.324 µM; in assay [5] it was 0.0504 µM and 0.0385 µM; in assay [6], 0.733 µM; in assay [7], 1.01 µM and 1.13 µM. In assay [8], the GI50 was 2.52 µM and 1.97 µM.

For `O=S(=O)(CC#CCCCOCC#Cc1ccccc1C#CCS(=O)(=O)c1ccccc1)c1ccccc1`, the GI50 in assay [1] was 22.6 µM; in [9] it was 18.3 µM; in [2] it was 4.16 µM; in assay [3] it was 33.6 µM; in assay [10] it was 16.3 µM; in assay [5] it was 19.6 µM. Also, the results for the GI50 in [6] and in assay [7] were 19 µM and 11.8 µM, respectively. Moreover, the TGI in [1] was 45.6 µM; in assay [9] it was 40.7 µM; in assay [2], 21.8 µM; in assay [3], over 100 µM; in assay [10], 35.3 µM; in [5], 50.1 µM. Also, the results for the TGI in assay [6] and in [7] were 34.8 µM and 25.7 µM, respectively.

Take `C=CCC(N[C@@H](CO)c1ccccc1)c1ccccn1` (stereo partly specified): the GI50 in assay [1] is over 100 µM; in assay [9] it was 22.9 µM; in assay [2], 18.3 µM; in assay [3], over 100 µM; in assay [4] it was over 100 µM; in assay [6], over 100 µM. The GI50 in [7] and in assay [8] was over 100 µM in each case. In addition, the TGI in assay [1], in [9], in assay [2], in assay [3], in assay [4] and in assay [6] was over 100 µM each time. For the same compound, the TGI in assay [7] and in [8] was over 100 µM throughout.
